Test system: T1, TePeNMT (TeMT1)
T1 construct: N-terminal His-tag, codon optimized synthetic gene in pET30a(+) NotI/XhoI, E. coli BL21(DE3), Ni-NTA purified; no chloroplast transit peptide predicted
Assay: Michaelis-Menten kinetics, LC-MS/MS detection of product vobasine
Assay type: biochemical, Tabernaemontana elegans
Conditions: 50 μM S-adenosylmethionine (saturating), 20 mM Tris pH 7.5, 30 °C, 5 min
Description: Michaelis-Menten kinetics, LC-MS/MS detection of product vobasine on TePeNMT (TeMT1)

Compound: C/C=C1/CN[C@H]2Cc3c([nH]c4ccccc34)C(=O)C[C@@H]1[C@@H]2C(=O)OC [perivine]
- Km: 1.91 µM

Source: publication PMC11383786, “Parallel evolution of methyltransferases leads to vobasine biosynthesis in Tabernaemontana elegans and Catharanthus roseus” (Frontiers in Plant Science, 2024)
